In ChEMBL document CHEMBL3885881, “DrugMatrix”:

Species: Rattus norvegicus
Assay: DrugMatrix - Regimen: Daily Repeat
Assay type: toxicity, organism-based, Sprague-Dawley
Parameters: regimen Daily Repeat, gender Male, age 6-8 weeks
Conditions: in vivo, po, route oral GAVAGE, vehicle 100 % WATER; for BASOPHIL / EOSINOPHIL / ERYTHROCYTE COUNT / HEMATOCRIT / HEMOGLOBIN / LEUKOCYTE COUNT / LYMPHOCYTE / MEAN CORPUSCULAR HEMOGLOBIN / MEAN CORPUSCULAR HEMOGLOBIN CONCENTRATION / MEAN CORPUSCULAR VOLUME / MONOCYTE / NEUTROPHIL / PLATELET COUNT: tissue Blood; for ALANINE AMINOTRANSFERASE / ALBUMIN / ALKALINE PHOSPHATASE / ASPARTATE AMINOTRANSFERASE / BLOOD UREA NITROGEN / CHLORIDE / CHOLESTEROL / CREATINE PHOSPHOKINASE / CREATININE / GLUCOSE / PHOSPHORUS / POTASSIUM / SODIUM / TOTAL BILIRUBIN / TOTAL PROTEIN: tissue Plasma
[1] = 0 mg/kg, 72 h, dose level Control, time 3 day
[2] = 0 mg/kg, 120 h, dose level Control, time 5 day
[3] = 10 mg/kg, 72 h, dose level Low, time 3 day
[4] = 10 mg/kg, 120 h, dose level Low, time 5 day
[5] = 1500 mg/kg, 72 h, dose level High, time 3 day
[6] = 1500 mg/kg, 120 h, dose level High, time 5 day

For `O=C(O)c1cc(=O)c2c(OCC(O)COc3cccc4oc(C(=O)O)cc(=O)c34)cccc2o1` [CROMOLYN], the BASOPHIL [1] was 0%, the EOSINOPHIL [1] was 0.33% and the “ERYTHROCYTE COUNT” value [1] was 5.88 x10E6/uL. For the same compound, the HEMATOCRIT [1] was 36.47%, the HEMOGLOBIN [1] was 14.2 G/DL and the “LEUKOCYTE COUNT” value [1] was 9.28 x10E3/uL. For the same compound, the LYMPHOCYTE [1] was 82.33%, the “MEAN CORPUSCULAR HEMOGLOBIN” value [1] was 24.2 pg and the “MEAN CORPUSCULAR HEMOGLOBIN CONCENTRATION” value [1] was 38.97 G/DL. The “MEAN CORPUSCULAR VOLUME” value [1] was 62.12 fL, the MONOCYTE [1] was 2.33% and the NEUTROPHIL [1] was 15%. The “PLATELET COUNT” value [1] was 1114 x10E3/uL, the “ALANINE AMINOTRANSFERASE” value [1] was 41.17 u/L and the ALBUMIN [1] was 3.95 G/DL. The “ALKALINE PHOSPHATASE” value [1] was 382.5 u/L, the “ASPARTATE AMINOTRANSFERASE” value [1] was 67.33 u/L and the “BLOOD UREA NITROGEN” value [1] was 15.5 mg/dL. For the same compound, the CHLORIDE [1] was 106.33 MEQ/L, the CHOLESTEROL [1] was 77.67 mg/dL and the “CREATINE PHOSPHOKINASE” value [1] was 123.33 u/L. For the same compound, the CREATININE [1] was 0.62 mg/dL, the GLUCOSE [1] was 185.67 mg/dL and the PHOSPHORUS [1] was 10.2 mg/dL. The POTASSIUM [1] was 6.72 MEQ/L, the SODIUM [1] was 149.67 MEQ/L and the “TOTAL BILIRUBIN” value [1] was 0.97 mg/dL. For the same compound, the “TOTAL PROTEIN” value [1] was 6.58 G/DL, the BASOPHIL [2] was 0% and the EOSINOPHIL [2] was 0%. The “ERYTHROCYTE COUNT” value [2] was 5.99 x10E6/uL, the HEMATOCRIT [2] was 36.88% and the HEMOGLOBIN [2] was 14.77 G/DL. For the same compound, the “LEUKOCYTE COUNT” value [2] was 11.35 x10E3/uL, the LYMPHOCYTE [2] was 85.5% and the “MEAN CORPUSCULAR HEMOGLOBIN” value [2] was 24.7 pg. The “MEAN CORPUSCULAR HEMOGLOBIN CONCENTRATION” value [2] was 40.07 G/DL, the “MEAN CORPUSCULAR VOLUME” value [2] was 61.58 fL and the MONOCYTE [2] was 1.83%. The NEUTROPHIL [2] was 12.67%, the “PLATELET COUNT” value [2] was 979.67 x10E3/uL and the “ALANINE AMINOTRANSFERASE” value [2] was 36.5 u/L. For the same compound, the ALBUMIN [2] was 3.63 G/DL, the “ALKALINE PHOSPHATASE” value [2] was 303.5 u/L and the “ASPARTATE AMINOTRANSFERASE” value [2] was 61 u/L. For the same compound, the “BLOOD UREA NITROGEN” value [2] was 16.5 mg/dL, the CHLORIDE [2] was 106.17 MEQ/L and the CHOLESTEROL [2] was 60.5 mg/dL. For the same compound, the “CREATINE PHOSPHOKINASE” value [2] was 154.83 u/L, the CREATININE [2] was 0.6 mg/dL and the GLUCOSE [2] was 201 mg/dL. The PHOSPHORUS [2] was 10.1 mg/dL, the POTASSIUM [2] was 6.85 MEQ/L and the SODIUM [2] was 148.17 MEQ/L. For the same compound, the “TOTAL BILIRUBIN” value [2] was 0.58 mg/dL, the “TOTAL PROTEIN” value [2] was 5.9 G/DL and the BASOPHIL [3] was 0%. The EOSINOPHIL [3] was 0%, the “ERYTHROCYTE COUNT” value [3] was 5.62 x10E6/uL and the HEMATOCRIT [3] was 34.93%. For the same compound, the HEMOGLOBIN [3] was 13.6 G/DL, the “LEUKOCYTE COUNT” value [3] was 10.7 x10E3/uL and the LYMPHOCYTE [3] was 79%. The “MEAN CORPUSCULAR HEMOGLOBIN” value [3] was 24.23 pg, the “MEAN CORPUSCULAR HEMOGLOBIN CONCENTRATION” value [3] was 38.93 G/DL and the “MEAN CORPUSCULAR VOLUME” value [3] was 62.2 fL. For the same compound, the MONOCYTE [3] was 2.33%, the NEUTROPHIL [3] was 18.67% and the “PLATELET COUNT” value [3] was 1007 x10E3/uL. The “ALANINE AMINOTRANSFERASE” value [3] was 38.67 u/L, the ALBUMIN [3] was 3.87 G/DL and the “ALKALINE PHOSPHATASE” value [3] was 381.33 u/L. For the same compound, the “ASPARTATE AMINOTRANSFERASE” value [3] was 60.67 u/L, the “BLOOD UREA NITROGEN” value [3] was 13 mg/dL and the CHLORIDE [3] was 107.33 MEQ/L. For the same compound, the CHOLESTEROL [3] was 71.67 mg/dL, the “CREATINE PHOSPHOKINASE” value [3] was 119.67 u/L and the CREATININE [3] was 0.6 mg/dL. For the same compound, the GLUCOSE [3] was 182 mg/dL, the PHOSPHORUS [3] was 10.4 mg/dL and the POTASSIUM [3] was 6.6 MEQ/L. For the same compound, the SODIUM [3] was 150.33 MEQ/L, the “TOTAL BILIRUBIN” value [3] was 0.8 mg/dL and the “TOTAL PROTEIN” value [3] was 6.33 G/DL. For the same compound, the BASOPHIL [4] was 0%, the EOSINOPHIL [4] was 0.33% and the “ERYTHROCYTE COUNT” value [4] was 5.82 x10E6/uL. The HEMATOCRIT [4] was 35.37%, the HEMOGLOBIN [4] was 14.43 G/DL and the “LEUKOCYTE COUNT” value [4] was 10.43 x10E3/uL. The LYMPHOCYTE [4] was 85%, the “MEAN CORPUSCULAR HEMOGLOBIN” value [4] was 24.83 pg and the “MEAN CORPUSCULAR HEMOGLOBIN CONCENTRATION” value [4] was 40.83 G/DL. The “MEAN CORPUSCULAR VOLUME” value [4] was 60.73 fL, the MONOCYTE [4] was 2.33% and the NEUTROPHIL [4] was 12.33%. The “PLATELET COUNT” value [4] was 932 x10E3/uL, the “ALANINE AMINOTRANSFERASE” value [4] was 38 u/L and the ALBUMIN [4] was 3.73 G/DL. The “ALKALINE PHOSPHATASE” value [4] was 274 u/L, the “ASPARTATE AMINOTRANSFERASE” value [4] was 62.33 u/L and the “BLOOD UREA NITROGEN” value [4] was 13.33 mg/dL. For the same compound, the CHLORIDE [4] was 109 MEQ/L, the CHOLESTEROL [4] was 60.33 mg/dL and the “CREATINE PHOSPHOKINASE” value [4] was 101.67 u/L. The CREATININE [4] was 0.73 mg/dL, the GLUCOSE [4] was 167.33 mg/dL and the PHOSPHORUS [4] was 9.73 mg/dL. For the same compound, the POTASSIUM [4] was 6.7 MEQ/L, the SODIUM [4] was 151.33 MEQ/L and the “TOTAL BILIRUBIN” value [4] was 0.67 mg/dL. The “TOTAL PROTEIN” value [4] was 5.87 G/DL, the BASOPHIL [5] was 0% and the EOSINOPHIL [5] was 0.33%. The “ERYTHROCYTE COUNT” value [5] was 5.31 x10E6/uL, the HEMATOCRIT [5] was 33.07% and the HEMOGLOBIN [5] was 13.3 G/DL. The “LEUKOCYTE COUNT” value [5] was 10.3 x10E3/uL, the LYMPHOCYTE [5] was 79.67% and the “MEAN CORPUSCULAR HEMOGLOBIN” value [5] was 25.1 pg. The “MEAN CORPUSCULAR HEMOGLOBIN CONCENTRATION” value [5] was 40.3 G/DL, the “MEAN CORPUSCULAR VOLUME” value [5] was 62.23 fL and the MONOCYTE [5] was 1%. The NEUTROPHIL [5] was 18.67%, the “PLATELET COUNT” value [5] was 969.67 x10E3/uL and the “ALANINE AMINOTRANSFERASE” value [5] was 36 u/L. For the same compound, the ALBUMIN [5] was 3.9 G/DL, the “ALKALINE PHOSPHATASE” value [5] was 383.5 u/L and the “ASPARTATE AMINOTRANSFERASE” value [5] was 60 u/L. The “BLOOD UREA NITROGEN” value [5] was 13 mg/dL, the CHLORIDE [5] was 106 MEQ/L and the CHOLESTEROL [5] was 72 mg/dL. For the same compound, the “CREATINE PHOSPHOKINASE” value [5] was 122 u/L, the CREATININE [5] was 0.5 mg/dL and the GLUCOSE [5] was 179 mg/dL. It also gave a PHOSPHORUS [5] of 9.8 mg/dL, a POTASSIUM [5] of 6.7 MEQ/L and an SODIUM [5] of 150 MEQ/L. The “TOTAL BILIRUBIN” value [5] was 0.5 mg/dL, the “TOTAL PROTEIN” value [5] was 6.25 G/DL and the BASOPHIL [6] was 0%. The EOSINOPHIL [6] was 0%, the “ERYTHROCYTE COUNT” value [6] was 6.38 x10E6/uL and the HEMATOCRIT [6] was 37.77%. For the same compound, the HEMOGLOBIN [6] was 14.93 G/DL, the “LEUKOCYTE COUNT” value [6] was 13.03 x10E3/uL and the LYMPHOCYTE [6] was 83.33%. The “MEAN CORPUSCULAR HEMOGLOBIN” value [6] was 23.43 pg, the “MEAN CORPUSCULAR HEMOGLOBIN CONCENTRATION” value [6] was 39.57 G/DL and the “MEAN CORPUSCULAR VOLUME” value [6] was 59.27 fL. The MONOCYTE [6] was 0.67%, the NEUTROPHIL [6] was 16% and the “PLATELET COUNT” value [6] was 1070.67 x10E3/uL. For the same compound, the “ALANINE AMINOTRANSFERASE” value [6] was 36.33 u/L, the ALBUMIN [6] was 3.77 G/DL and the “ALKALINE PHOSPHATASE” value [6] was 352 u/L. For the same compound, the “ASPARTATE AMINOTRANSFERASE” value [6] was 63 u/L, the “BLOOD UREA NITROGEN” value [6] was 15.33 mg/dL and the CHLORIDE [6] was 106 MEQ/L. The CHOLESTEROL [6] was 50.67 mg/dL, the “CREATINE PHOSPHOKINASE” value [6] was 125.33 u/L and the CREATININE [6] was 0.63 mg/dL. It also gave a GLUCOSE [6] of 177.67 mg/dL, a PHOSPHORUS [6] of 10.5 mg/dL and a POTASSIUM [6] of 7.1 MEQ/L. For the same compound, the SODIUM [6] was 150 MEQ/L, the “TOTAL BILIRUBIN” value [6] was 0.57 mg/dL and the “TOTAL PROTEIN” value [6] was 6.13 G/DL.
